Data on 13 molecules can be found in patent publication US11964953B2, “Substituted aminothiazoles as DGKzeta inhibitors for immune activation” (Bayer Aktiengesellschaft, priority 2020, dated 2024).

The target of this experiment is human DGKζ (Homo sapiens (Human), UniProt Q13574). Briefly: Human DGKζ kinase activity inhibition assay (ADP-Glo). Type of experiment: biochemical. The note with it: in vitro human DGKζ kinase activity inhibition assay; read-out: IC50. A digest of the protocol: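 ADP-Glo luminescence, reflecting ADP produced, served as the readout of activity. Full-length human DGKζ, FLAG-tagged at the C-terminus and insect-cell expressed, was used; lipid substrate mix was sonicated with octyl-β-D-glucopyranoside in 50 mM MOPS pH 7.4.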
Chain of human DGKζ (Q13574 other isoform, or with tags, fused parts or gaps): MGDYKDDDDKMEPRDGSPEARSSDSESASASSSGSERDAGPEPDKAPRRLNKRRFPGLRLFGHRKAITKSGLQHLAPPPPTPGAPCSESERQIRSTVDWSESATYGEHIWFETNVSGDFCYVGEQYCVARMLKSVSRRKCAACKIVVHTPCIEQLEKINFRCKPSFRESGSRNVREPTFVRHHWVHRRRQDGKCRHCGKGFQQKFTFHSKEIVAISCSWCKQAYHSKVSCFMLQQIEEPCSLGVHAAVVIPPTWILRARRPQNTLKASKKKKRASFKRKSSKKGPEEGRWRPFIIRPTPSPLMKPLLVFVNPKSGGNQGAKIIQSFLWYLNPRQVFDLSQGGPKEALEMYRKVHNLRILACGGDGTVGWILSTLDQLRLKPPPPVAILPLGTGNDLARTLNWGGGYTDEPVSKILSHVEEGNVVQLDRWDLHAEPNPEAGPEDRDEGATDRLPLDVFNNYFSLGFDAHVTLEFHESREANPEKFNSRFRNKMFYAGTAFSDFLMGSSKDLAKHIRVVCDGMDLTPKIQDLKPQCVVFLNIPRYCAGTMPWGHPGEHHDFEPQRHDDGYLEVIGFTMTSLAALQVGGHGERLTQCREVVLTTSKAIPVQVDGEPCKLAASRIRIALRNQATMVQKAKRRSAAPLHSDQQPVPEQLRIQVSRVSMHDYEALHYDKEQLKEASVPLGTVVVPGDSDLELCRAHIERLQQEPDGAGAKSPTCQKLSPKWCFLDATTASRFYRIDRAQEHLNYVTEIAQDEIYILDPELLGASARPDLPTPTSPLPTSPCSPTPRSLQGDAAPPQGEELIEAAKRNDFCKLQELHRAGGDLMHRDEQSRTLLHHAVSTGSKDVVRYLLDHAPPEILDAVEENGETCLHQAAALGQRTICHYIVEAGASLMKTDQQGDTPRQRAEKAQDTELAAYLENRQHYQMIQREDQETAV

In the case of `COc1ccc(C(=O)c2sc(N(c3ccc(Cl)c(F)c3)C(C)C(N)=O)nc2N)cn1` (racemic) [Example 172, rac-2-(N-[4-amino-5-(6-methoxypyridine-3-carbonyl)thiazol-2-yl]-4-chloro-3-fluoro-anilino)propanamide], the IC50 amounted to 0.046 µM.
Regarding `CC(C(N)=O)N(c1ccc(F)cc1)c1nc(N)c(C(=O)c2ccc(Oc3ccccc3)cc2)s1` (racemic) [Example 173, rac-2-(N-[4-amino-5-(4-phenoxybenzoyl)thiazol-2-yl]-4-fluoro-anilino)propanamide], the half-maximal inhibitory concentration (IC50) worked out at 0.025 µM.
In the case of `COc1ccc(N(c2nc(N)c(C(=O)c3ccc(OC(F)F)cc3)s2)C(C)C(N)=O)cc1` (racemic) [Example 174, rac-2-(N-[4-amino-5-[4-(difluoromethoxy)benzoyl]thiazol-2-yl]-4-methoxy-anilino)propanamide], the IC50 came out at 0.051 µM.
For the molecule `CC(C(N)=O)N(c1ccc(F)cc1)c1nc(N)c(C(=O)c2ccc([N+](=O)[O-])cc2)s1` (racemic) [Example 175, rac-2-(N-[4-amino-5-(4-nitrobenzoyl)thiazol-2-yl]-4-fluoro-anilino)propanamide], the IC50 was 0.02 µM.
As for `COc1ccc(C(=O)c2sc(N(c3ccc(F)cc3)C(C)C(N)=O)nc2C)cc1` (racemic) [Example 176, rac-2-(4-fluoro-N-[5-(4-methoxybenzoyl)-4-methyl-thiazol-2-yl]anilino)propanamide], the IC50 worked out at 0.091 µM.
As to `CC(C(N)=O)N(c1ccc(F)cc1)c1nc(N)c(C(=O)c2ccc(NC(=O)C3CC3)cc2)s1` (racemic) [Example 177, rac-4-[4-[4-amino-2-(N-(2-amino-1-methyl-2-oxo-ethyl)-4-fluoro-anilino)thiazole-5-carbonyl]phenyl]cyclopropanecarboxamide], the IC50 stood at 0.04 µM.
For `CC(C(N)=O)N(c1ccc(F)cc1)c1nc(N)c(C(=O)c2ccc(N3CCOCC3)cc2)s1` (racemic) [Example 178, rac-2-(N-[4-amino-5-(4-morpholinobenzoyl)thiazol-2-yl]-4-fluoro-anilino)propanamide], the IC50 was 0.048 µM.
With `CC(C(N)=O)N(c1ccc(F)cc1)c1nc(N)c(C(=O)c2ccc(Cn3cccn3)cc2)s1` (racemic) [Example 179, rac-2-(N-[4-amino-5-[4-(pyrazol-1-ylmethyl)benzoyl]thiazol-2-yl]-4-fluoro-anilino)propanamide], the IC50 was determined as 0.057 µM.
In the case of `CC(C(N)=O)N(c1ccc(F)cc1)c1nc(N)c(C(=O)c2ccc(N(C)C)cc2)s1` (racemic) [Example 180, rac-2-(N-[4-amino-5-[4-(dimethylamino)benzoyl]thiazol-2-yl]-4-fluoro-anilino)propanamide] it was 0.062 µM; in that of `CC(C(N)=O)N(c1ccc(F)cc1)c1nc(N)c(C(=O)c2ccc(N3CCCC3)cc2)s1` (racemic) [Example 181, rac-2-(N-[4-amino-5-(4-pyrrolidin-1-ylbenzoyl)thiazol-2-yl]-4-fluoro-anilino)propanamide], 0.065 µM.
`CC(C(N)=O)N(c1ccc(OCc2ccccc2)cc1)c1nc(N)c(C(=O)c2ccc(OC(F)F)cc2)s1` (racemic) [Example 182, rac-2-(N-[4-amino-5-[4-(difluoromethoxy)benzoyl]thiazol-2-yl]-4-benzyloxy-anilino)propanamide]: the IC50 was 0.091 µM.
For the molecule `CC(C(N)=O)N(c1ccc(F)cc1)c1nc(N)c(C(=O)c2cccc(OC(F)F)c2)s1` (racemic) [Example 183, rac-2-(N-[4-amino-5-[3-(difluoromethoxy)benzoyl]thiazol-2-yl]-4-fluoro-anilino)propanamide], the IC50 turned out to be 0.222 µM.
Then `CC(C(N)=O)N(c1ccc(F)c(F)c1)c1nc(N)c(C(=O)c2cccnc2)s1` (racemic) [Example 184, rac-2-(N-[4-amino-5-(pyridine-3-carbonyl)thiazol-2-yl]-3,4-difluoro-anilino)propanamide], with 0.428 µM.

The IC50 is the concentration that gives 50% inhibition.
